According to the supplement of paper PMC5908809:

Legend:
KAI3 (IL-2 2.5 ng/mL) [1] = assay: drug sensitivity score (DSS) (DSS units); higher = more sensitive; extreme values may be limits of the assay; settings: 72 h
[2] = tested on: normal primary NK cells, pool 1 (3 donors), resting (IL-2 0 ng/mL); assay: as above; settings: 72 h
[3] = tested on: normal primary NK cells, pool 1 (3 donors) (IL-2 2.5 ng/mL); assay: as above; settings: 72 h
[4] = tested on: normal primary NK cells, pool 2 (3 donors) (IL-2 2.5 ng/mL); assay: as above; settings: 72 h
IMC-1 (IL-2 20 ng/mL) [5] = assay: as above; settings: 72 h
[6] = tested on: normal primary NK cells, pool 3 (3 donors) (IL-2 2.5 ng/mL); assay: as above; settings: 72 h
NK-YS (IL-2 2.5 ng/mL) [7] = assay: as above; settings: 72 h
YT (IL-2 2.5 ng/mL) [8] = assay: as above; settings: 72 h
NK-92 (IL-2 2.5 ng/mL) [9] = assay: as above; settings: 72 h
KHYG-1 (IL-2 2.5 ng/mL) [10] = assay: as above; settings: 72 h
NKL (IL-2 2.5 ng/mL) [11] = assay: as above; settings: 72 h
DERL-7 (IL-2 2.5 ng/mL) [12] = assay: as above; settings: 72 h
SNK-6 (IL-2 2.5 ng/mL) [13] = assay: as above; settings: 72 h
[14] = tested on: normal NK cells expanded with K562-aAPC; assay: as above; settings: 72 h; IL-2 2.5 ng/mL
Protocol: (§1)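 Drug sensitivity and resistance testing on K562-aAPC-expanded normal NK cells: 5 concentrations (10-fold steps over a 10,000-fold range), 72 h at 37 °C, viability by CellTiter-Glo normalised to DMSO and benzethonium chloride controls; DSS from the fitted curve.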

KAI3 (IL-2 2.5 ng/mL) [15] = assay: percent inhibition of viability; higher = more inhibition; settings: 72 h
[16] = tested on: normal primary NK cells, pool 1 (3 donors), resting (IL-2 0 ng/mL); assay: as above; settings: 72 h
[17] = tested on: normal primary NK cells, pool 1 (3 donors) (IL-2 2.5 ng/mL); assay: as above; settings: 72 h
[18] = tested on: normal primary NK cells, pool 2 (3 donors) (IL-2 2.5 ng/mL); assay: as above; settings: 72 h
IMC-1 (IL-2 20 ng/mL) [19] = assay: as above; settings: 72 h
[20] = tested on: normal primary NK cells, pool 3 (3 donors) (IL-2 2.5 ng/mL); assay: as above; settings: 72 h
NK-YS (IL-2 2.5 ng/mL) [21] = assay: as above; settings: 72 h
YT (IL-2 2.5 ng/mL) [22] = assay: as above; settings: 72 h
NK-92 (IL-2 2.5 ng/mL) [23] = assay: as above; settings: 72 h
KHYG-1 (IL-2 2.5 ng/mL) [24] = assay: as above; settings: 72 h
NKL (IL-2 2.5 ng/mL) [25] = assay: as above; settings: 72 h
DERL-7 (IL-2 2.5 ng/mL) [26] = assay: as above; settings: 72 h
SNK-6 (IL-2 2.5 ng/mL) [27] = assay: as above; settings: 72 h
[28] = tested on: normal NK cells expanded with K562-aAPC; assay: as above; settings: 72 h, IL-2 2.5 ng/mL
Protocol: as §1

FC(F)c1nc2ccccc2n1-c1nc(N2CCOCC2)nc(N2CCOCC2)n1 [ZSTK474] (max concentration tested 10000 nM)
Settings	drug sensitivity score
DERL-7 (IL-2 2.5 ng/mL) [12]	18.4
IMC-1 (IL-2 20 ng/mL) [5]	0
KAI3 (IL-2 2.5 ng/mL) [1]	9.53
KHYG-1 (IL-2 2.5 ng/mL) [10]	4.45
NK-92 (IL-2 2.5 ng/mL) [9]	16.9
NK-YS (IL-2 2.5 ng/mL) [7]	7.54
NKL (IL-2 2.5 ng/mL) [11]	11
SNK-6 (IL-2 2.5 ng/mL) [13]	7.51
YT (IL-2 2.5 ng/mL) [8]	9
[2]	5.69
[3]	7.96
[4]	3.84
[6]	1.91
[14]	7.86

percent inhibition of viability [%]
Settings	1 nM	10 nM	100 nM	1000 nM	10000 nM
DERL-7 (IL-2 2.5 ng/mL) [26]	6	10.9	36.5	75.4	81.7
IMC-1 (IL-2 20 ng/mL) [19]	0.84	-3.67	-9.08	-31.5	-20.7
KAI3 (IL-2 2.5 ng/mL) [15]	4.91	1.34	14.2	43.2	55.8
KHYG-1 (IL-2 2.5 ng/mL) [24]	1.03	-2.51	5.44	17.9	48
NK-92 (IL-2 2.5 ng/mL) [23]	1.13	13.1	45.6	48.8	57.2
NK-YS (IL-2 2.5 ng/mL) [21]	-6.13	-3.67	5.5	36	57.2
NKL (IL-2 2.5 ng/mL) [25]	-4.7	3.86	6.05	54.5	69.3
SNK-6 (IL-2 2.5 ng/mL) [27]	17.9	-3.78	-1.36	35.9	58.6
YT (IL-2 2.5 ng/mL) [22]	3.19	3.41	11.6	42.3	50.5
[16]	-19.3	-14.1	10.2	27.2	41.5
[17]	-2.64	-1.27	20.4	31.6	32.4
[18]	-2.66	-3.09	1.26	20	34.2
[20]	-3.55	-8.03	-3.22	10.6	22
[28]	-8.61	1.11	12.5	35.9	49.6

Clc1ccc(C(c2ccccc2Cl)C(Cl)Cl)cc1 (stereo not drawn) [Mitotane] (max concentration tested 10000 nM)
Settings	drug sensitivity score
DERL-7 (IL-2 2.5 ng/mL) [12]	0
IMC-1 (IL-2 20 ng/mL) [5]	0
KAI3 (IL-2 2.5 ng/mL) [1]	0
KHYG-1 (IL-2 2.5 ng/mL) [10]	0
NK-92 (IL-2 2.5 ng/mL) [9]	0
NK-YS (IL-2 2.5 ng/mL) [7]	0
NKL (IL-2 2.5 ng/mL) [11]	0
SNK-6 (IL-2 2.5 ng/mL) [13]	0
YT (IL-2 2.5 ng/mL) [8]	0
[2]	0
[3]	0
[4]	0
[6]	0
[14]	0

percent inhibition of viability [%]
Settings	1 nM	10 nM	100 nM	1000 nM	10000 nM
DERL-7 (IL-2 2.5 ng/mL) [26]	-3.98	-2.6	-1.88	-5.27	1.52
IMC-1 (IL-2 20 ng/mL) [19]	-4	-2.56	-9	-5.63	-8.85
KAI3 (IL-2 2.5 ng/mL) [15]	-6.14	-3.83	-3.7	-6.65	-4.73
KHYG-1 (IL-2 2.5 ng/mL) [24]	-5.54	-6.16	-6.75	-7.76	-6.11
NK-92 (IL-2 2.5 ng/mL) [23]	-11.9	-11.6	-10.9	-14.2	-13.7
NK-YS (IL-2 2.5 ng/mL) [21]	-3.11	-4.91	-8.11	-1.41	-4.03
NKL (IL-2 2.5 ng/mL) [25]	-23.5	-31.7	-25.8	-21.9	-16.6
SNK-6 (IL-2 2.5 ng/mL) [27]	11.9	12.4	-5.92	-1.09	-8.81
YT (IL-2 2.5 ng/mL) [22]	-5.71	-7.2	-6.08	-5.64	-3.1
[16]	-7.77	-15.2	11.9	-9.1	7.07
[17]	-4.65	-4.88	5.61	-1.23	-0.57
[18]	-6.28	-4.83	-5.23	-1.37	-4.6
[20]	-8.66	-9.61	-7	-8.07	0.73
[28]	-3.47	-5.5	-2.42	-6.05	-4.65
